Source: patent US20230339835A1, “2,3,5-TRIMETHYL-6-NONYLCYCLOHEXA-2,5-DIENE-1,4-DIONE FOR SUPPRESSING AND TREATING ALPHA-SYNUCLEINOPATHIES, TAUOPATHIES, AND OTHER DISORDERS” (PTC THERAPEUTICS, INC., priority 2018, published 2023)
pEC50: −log10 of the molar value. Read-outs that look alike come from different tables or passages of the source.

Columns and labels:
[1] = biological target: T1, recombinant human αSynuclein (Homo sapiens, UniProt P37840); test: Cell-free αSynuclein aggregation assay (Thioflavin T); type: biochemical; settings: 200 μM αSynuclein, 100 μM compound, t=24 hours, one-way ANOVA with Tukey's test
T1 construct: purchased Proteos, Inc
Protocol: Summary: The compound 2,3,5-trimethyl-6-nonylcyclohexa-2,5-diene-1,4-dione (“C9”), and its C8 (2,3,5-trimethyl-6-octylcyclohexa-2,5-diene-1,4-dione) and C7 (2,3,5-trimethyl-6-heptylcyclohexa-2,5-diene-1,4-dione) analogs were tested for their function as inhibitors of αSynuclein aggregation, as measured by the presence and extent of a lag phase in the kinetics of protein aggregation. Changes in the fluorescence intensity by the aggregate-binding fluorophore, Thioflavin T, were followed to report on the protein aggregation as a function of time.
Experimental Methods: Cell-free αSynuclein aggregation assays were set up with 200 μM of recombinant human αSynuclein (Proteos, Inc.) in the presence of 100 μM of compound (from 10 mM stock solutions in DMSO) or in 1% (v/v) DMSO as vehicle. All solutions were prepared in Dulbecco's phosphate-buffered saline (DPBS) buffer (pH 7.4) with 0.03% (v/v) NaN3 and 5 μM Thioflavin T (ThT), prepared as a master mix before addition of the protein or compounds. A protein master mix was then prepared and separated into 4 tubes (1 per condition). […]
Protein solution+/−compound and background samples were then loaded into wells of an optically transparent 96-well plate with black walls (Corning Costar), which was sealed with a LightCycler® 480 seal (Roche Life Science), incubated at 37° C. for 15 minutes to equilibrate, after which the data collection was started. A Tecan M1000 spectrometer was used to collect data points on ThT fluorescence (ex/em 450/490 nm) every 30 minutes. The plate was agitated by shaking in between fluorescence reads.
Data Analysis and Results: Fluorescence intensity data were collected on all the samples over time. The endpoint fluorescence intensity unit (FIU) value of the mean of vehicle-treated αSyn samples was set to 100%, and all other FIU values were normalized relative to it (see FIG. 1A). The end results were plotted as normalized ThT fluorescence (%) with respect to time.
Normalized ThT fluorescence values (% FIU) at t=24 hours were used to compare samples (see FIG. 1B). […]

[2] = system: PD patient fibroblasts (ND29542); test: Rescue of PD patient fibroblasts from BSO plus iron-induced oxidative stress; type: cell-based, human; settings: BSO (125 μM) plus iron (125 μM); for Max Rescue (@ 500 nM): 500 nM compound, unit assumed; for pEC50: Homo sapiens, Fibroblast, concentration at which 50% maximal rescue of cell viability was observed
Protocol: (§1) An initial screen was performed to identify the effectiveness of compounds for the amelioration of PD and AD. Test samples and solvent controls were tested for their ability to rescue PD and AD fibroblasts stressed by addition of L-buthionine-(S,R)-sulfoximine (BSO, a specific inhibitor of GSH synthetase) plus iron (e.g. iron citrate), in a similar manner as that described in Jauslin et al., Hum. Mol. Genet. 11(24):3055 (2002), Jauslin et al., FASEB J. 17:1972-4 (2003), and International Patent Application WO 2004/003565. This specific BSO-mediated cell death was prevented or ameliorated by administration of compounds described herein.
(§2) The AD experiments were performed as follows. PD experiments were performed in a similar manner; certain specific conditions are noted below in Table 1A.
MEM (a medium enriched in amino acids and vitamins) and Medium 199 (M199) with Earle's Balanced Salts (EBS), without phenol red, were purchased from Invitrogen. Fetal Calf Serum was obtained from Corning. Basic fibroblast growth factor (bFGF) and epidermal growth factor (EGF) were purchased from PeproTech. Penicillin-streptomycin-glutamine mix, L-buthionine (S,R)-sulfoximine, iron citrate, and insulin from bovine pancreas were purchased from Sigma. Calcein AM was purchased from Anaspec. Cell Culture Medium was prepared by combining 450 mL MEM, 50 mL Fetal Calf Serum, 100 U/mL penicillin, and 100 microgram/mL streptomycin. Assay medium was prepared by combining 125 mL M199, 50 mL Fetal Calf Serum, 100 U/mL penicillin, 100 microgram/mL streptomycin, 2 mM glutamine, 10 microgram/mL insulin, 10 ng/mL EGF, and 10 ng/mL bFGF; MEM was added to make the volume up to 500 mL. 10 mM BSO and 10 mM iron citrate solutions were prepared in water with subsequent filter-sterilization and stored at −20° C.
The test samples were supplied in 1.5 mL glass vials or polypropylene vials. The compounds were diluted with DMSO, to result in a 1 mM stock solution. Once dissolved, they were stored at −20° C.
A culture of AD or PD patient-derived fibroblasts was started from a vial with approximately 500,000 cells stored in liquid nitrogen. Cells were propagated in Cell Culture Medium, with subcultivation every third day by trypsinization at a ratio of 1:3. Once confluent, fibroblasts were harvested by trypsinization, resuspended in Assay Medium, and seeded at a final cell density of 2,500 cells/0.1 mL per well of a standard 96-well tissue culture plate. […]
(§3) 100 microliters of Calcein AM (1 microM) in PBS+Ca+Mg was then added to each well. […] After that time fluorescence (excitation/emission wavelengths of 485 nm and 525 nm, respectively) was read on a Spectramax fluorescence reader. Data were analyzed using standard four-parameter curve fit algorithms (XLFit or Prism) to determine the EC50 concentration for each compound.

[3] = Brain and plasma exposure of C9 in mice after oral dosing; type: in vivo; settings: mouse, 300 mg/kg PO in sesame oil, C57BL/6 mice
Protocol: A 300 mg/kg dose of C9 was administered as a sesame oil solution via oral gavage to four C57BL/6 mice. Eight hours after compound administration, plasma and brain exposure were measured (Table 10).

[4] = system: AD patient fibroblasts ND41001; test: Rescue of AD patient fibroblasts from BSO plus iron-induced oxidative stress, ND41001; type: cell-based; settings: Homo sapiens, Fibroblast
Protocol: as §1, §2
MEM (a medium enriched in amino acids and vitamins) and Medium 199 (M199) with Earle's Balanced Salts (EBS), without phenol red, were purchased from Invitrogen. Fetal Calf Serum was obtained from Corning. […]
as §3

Compound | inhibition of αSynuclein aggregation (normalized ThT fluorescence vs vehicle) [1] | Max Rescue (@ 500 nM) [2] [%] | pEC50 [2] | Kp at 8 h ([3]; brain and plasma, read-out: Brain:Plasma Ratio) | concentration at 8 h ([3]; brain, read-out: C9 [Brain]) [ng/g] | concentration at 8 h ([3]; plasma, read-out: C9 [Plasma]) [ng/mL] | pEC50 ([4]; Iron citrate (50 μM) + BSO (50 μM)) | pEC50 ([4]; Iron citrate (100 μM) + BSO (25 μM))
CCCCCCCCC1=C(C)C(=O)C(C)=C(C)C1=O [Compound C8, 2,3,5-trimethyl-6-octylcyclohexa-2,5-diene-1,4-dione, reference compound] | not statistically significant | 73 | < 6.30 |  |  |  |  | 
CCCCCCCCCC1=C(C)C(=O)C(C)=C(C)C1=O [Compound C9, 2,3,5-trimethyl-6-nonylcyclohexa-2,5-diene-1,4-dione] | significant inhibition effect | 103 | 7.08 | 7 | 27900 | 3830 | 7.89 | 7.77
